Data reported in the NIST ThermoML archive (doi:10.1021/je7005538).
Values joined by “and” are separate entries in the source; they are usually repeats but may differ in a detail not shown here. Equal values may be shown once. Numbers after ± are expanded uncertainties.

Assay: xn = mol fraction of the nth substance listed
Details: Fluid (supercritical or subcritical phases), Vibrating tube method

Cc1c(C)c2c(c(C)c1O)CC[C@@](C)(CCC[C@H](C)CCC[C@H](C)CCCC(C)C)O2 [(+)-α-tocopherol] + O=C=O
mass density
Details	x1 = 0.0004	x1 = 0.00042	x1 = 0.00043	x1 = 0.0005	x1 = 0.00059	x1 = 0.00074	x1 = 0.00081
308.15 K, 10000 kPa	720.4 ± 2.1 kg/m3	718.9 ± 2.5 kg/m3 and 720.9 ± 2.2 kg/m3	720.6 ± 2.1 kg/m3	720.3 ± 2.1 kg/m3	720.2 ± 2.1 kg/m3	721.2 ± 2.1 kg/m3	720.9 ± 2.1 kg/m3
308.15 K, 15000 kPa	817.8 ± 13 kg/m3	816.9 ± 17 kg/m3 and 818.1 ± 17 kg/m3	818.2 ± 8.6 kg/m3	817.9 ± 1.7 kg/m3	817.8 ± 2.4 kg/m3	818.6 ± 8.3 kg/m3	818.7 ± 5.8 kg/m3
308.15 K, 20000 kPa	867.2 ± 6.5 kg/m3	866.7 ± 8.7 kg/m3 and 867.6 ± 8.5 kg/m3	867.5 ± 4.3 kg/m3	867.4 ± 1 kg/m3	867.3 ± 1.4 kg/m3	868 ± 4 kg/m3	868.2 ± 2.7 kg/m3
308.15 K, 30000 kPa	929.5 ± 5.4 kg/m3	929.3 ± 7.2 kg/m3 and 929.6 ± 7.1 kg/m3	929.6 ± 3.6 kg/m3	929.6 ± 0.8 kg/m3	929.6 ± 1.1 kg/m3	930 ± 3.4 kg/m3	930.1 ± 2.3 kg/m3
308.15 K, 40000 kPa	971.9 ± 0.7 kg/m3	971.9 ± 0.8 kg/m3 and 972 ± 0.7 kg/m3	972 ± 0.7 kg/m3	972 ± 0.7 kg/m3	972 ± 0.7 kg/m3	972.2 ± 0.8 kg/m3	972.3 ± 0.8 kg/m3
313.15 K, 10000 kPa	639 ± 14 kg/m3	639 ± 18 kg/m3 and 638.8 ± 18 kg/m3	638.7 ± 9.5 kg/m3	639.4 ± 3.2 kg/m3	638.9 ± 3.7 kg/m3	640 ± 9 kg/m3	639.8 ± 6.7 kg/m3
313.15 K, 15000 kPa	782.3 ± 15 kg/m3	782.6 kg/m3 and 782.3 kg/m3	782.5 ± 9.7 kg/m3	782.8 ± 2.2 kg/m3	782.4 ± 3.2 kg/m3	783.3 ± 9.8 kg/m3	783.1 ± 6.9 kg/m3
313.15 K, 20000 kPa	841 ± 5.6 kg/m3	841.2 ± 7 kg/m3 and 840.9 ± 7 kg/m3	841.2 ± 3.6 kg/m3	841.3 ± 1.1 kg/m3	841.1 ± 1.4 kg/m3	841.7 ± 3.3 kg/m3	841.6 ± 2.4 kg/m3
313.15 K, 30000 kPa	910.2 ± 4.2 kg/m3	910.3 ± 290 kg/m3 and 910.1 ± 290 kg/m3	910.3 ± 2.7 kg/m3	910.4 ± 0.9 kg/m3	910.3 ± 1.1 kg/m3	910.7 ± 2.6 kg/m3	910.6 ± 1.9 kg/m3
313.15 K, 40000 kPa	955.9 ± 0.8 kg/m3	955.9 ± 0.8 kg/m3 and 955.7 ± 0.8 kg/m3	955.9 ± 0.8 kg/m3	955.9 ± 0.8 kg/m3	956 ± 0.8 kg/m3	956.1 ± 0.8 kg/m3	956 ± 0.8 kg/m3
323.15 K, 10000 kPa	398.5 ± 38 kg/m3	398.3 ± 50 kg/m3 and 398.5 ± 50 kg/m3	398.3 ± 25 kg/m3	398.4 ± 5.8 kg/m3	398.8 ± 7 kg/m3	398.9 ± 26 kg/m3	398.7 ± 18 kg/m3
323.15 K, 15000 kPa	703.6 ± 38 kg/m3	703.1 kg/m3 and 703.4 kg/m3	703.4 ± 24 kg/m3	703.5 ± 4.4 kg/m3	703.4 ± 6.9 kg/m3	704.1 ± 25 kg/m3	704.1 ± 18 kg/m3
323.15 K, 20000 kPa	786.2 ± 8.9 kg/m3	785.8 ± 11 kg/m3 and 786 ± 11 kg/m3	786 ± 5.8 kg/m3	786 ± 1.3 kg/m3	786 ± 1.9 kg/m3	786.6 ± 5.8 kg/m3	786.6 ± 4 kg/m3
323.15 K, 30000 kPa	871.2 ± 5.6 kg/m3	870.9 ± 100 kg/m3 and 871.1 ± 100 kg/m3	871 ± 3.6 kg/m3	871.1 ± 1 kg/m3	871.1 ± 1.3 kg/m3	871.5 ± 3.6 kg/m3	871.6 ± 2.5 kg/m3
323.15 K, 40000 kPa	923.3 ± 0.8 kg/m3	923.1 ± 0.8 kg/m3 and 923.3 ± 0.8 kg/m3	923.3 ± 0.8 kg/m3	923.3 ± 0.8 kg/m3	923.2 ± 0.8 kg/m3	923.6 ± 0.8 kg/m3	923.6 ± 0.8 kg/m3
333.15 K, 10000 kPa	297.2 ± 6.3 kg/m3	297.1 ± 6.3 kg/m3 and 296.8 ± 6.3 kg/m3	296.9 ± 6.3 kg/m3	297.1 ± 6.3 kg/m3	297.3 ± 6.3 kg/m3	297.7 ± 6.3 kg/m3	297.7 ± 6.3 kg/m3
333.15 K, 15000 kPa	608.6 ± 52 kg/m3	608.9 ± 69 kg/m3 and 608.8 ± 69 kg/m3	608.7 ± 35 kg/m3	608.7 ± 4.9 kg/m3	609.3 ± 7.8 kg/m3	609.3 ± 35 kg/m3	609.4 ± 24 kg/m3
333.15 K, 20000 kPa	725.7 ± 22 kg/m3	725.6 ± 30 kg/m3 and 725.5 ± 30 kg/m3	725.5 ± 15 kg/m3	725.7 ± 1.8 kg/m3	725.8 ± 3.1 kg/m3	726.1 ± 15 kg/m3	726.2 ± 10 kg/m3
333.15 K, 30000 kPa	830.3 ± 12 kg/m3	830.3 ± 16 kg/m3 and 830.2 ± 16 kg/m3	830.2 ± 8.1 kg/m3	830.3 ± 1.2 kg/m3	830.5 ± 1.9 kg/m3	830.7 ± 7.9 kg/m3	830.7 ± 5.4 kg/m3
333.15 K, 40000 kPa	890.2 ± 0.9 kg/m3	890.2 ± 0.9 kg/m3 and 890.1 ± 0.9 kg/m3	890.1 ± 0.9 kg/m3	890.1 ± 0.9 kg/m3	890.3 ± 0.9 kg/m3	890.5 ± 0.9 kg/m3	890.5 ± 0.9 kg/m3
